Laboratory results taken from US6015801A, “Method for inhibiting bone resorption” (Merck & Co., Inc., priority 1998, dated 2000).
Like-named read-outs stand apart in the source and are kept apart here.

Assays:
esophagus = details: oral; literature; cited from earlier work
canine esophagus = experiment: Esophageal irritation potential in a dog model (infusion into esophagus, histopathology); details: for Esophageal irritation potential: low dosages on consecutive days (Groups 7 and 8)
Procedure: The esophageal irritation potential of the bisphosphonates is evaluated using a dog model.
The following solutions are prepared:
(1) simulated gastric juice (pH about 2), i.e. the control solution.
(5) simulated gastric juice (pH about 2) containing about 0.20 mg/mL of risedronate sodium on a risedronic acid active basis.
(6) simulated gastric juice (pH about 2) containing about 4.0 mg/mL of tiludronate disodium on a tiludronic acid active basis.
The pH of the resulting solution is measured and if necessary is adjusted to about 2 using 1.0 M HCl (aqueous) or 1.0 M NaOH (aqueous).
The animals used in the experiments are anesthetized and administered about 50 mL of the appropriate solution over about 30 minutes by infusion into the esophagus using an infusion pump and a rubber catheter. The following treatment experiments are run:
Group 1: This control group contains four animals. Each animal is administered a dosage of about 50 mL of simulated gastric juice [solution (1)] on each of five consecutive days. The animals are sacrificed immediately after the last dose is administered. […]
Group 7: This group contains eight animals. Each animal is administered a dosage of about 50 mL of simulated gastric juice containing about 0.20 mg/mL of risedronate [solution (5)] on each of five consecutive days. The animals are sacrificed immediately after the last dose is administered.
Group 8: This group contains four animals. Each animal is administered a dosage of about 50 mL of simulated gastric juice containing about 4.0 mg/mL of tiludronate [solution (6)] on each of five consecutive days. The animals are sacrificed immediately after the last dose is administered.
The esophagus from each sacrificed animal is removed and prepared for histopathology using standard techniques by embedding the tissue in paraffin, staining with hematoxylin and eosin. The sections are examined microscopically.

bone [1] = details: cited from earlier work
bone [2] = details: Mortensen et al. 1995; cited from earlier work
[3] = 0.20 mg/mL alendronate, 50 mL, 1x daily for 5 days, sacrifice immediately after last dosing (Group 2, n = 4), monosodium trihydrate
[4] = 0.40 mg/mL alendronate, 50 mL, 2x weekly for 4 weeks (Group 6, n = 6), sacrifice about four days after last dose, immediately (Table 1), monosodium trihydrate
[5] = 0.80 mg/mL alendronate, 50 mL, 1x weekly for a total of 4 doses, sacrifice 7 days after last dosing (Group 5, n = 6), monosodium trihydrate
[6] = 0.80 mg/mL alendronate, 50 mL, single dose, sacrifice 24 hours after dosing (Group 3, n = 5), monosodium trihydrate
[7] = 0.80 mg/mL alendronate, 50 mL, single dose, sacrifice 7 days after dosing (Group 4, n = 5), monosodium trihydrate
[8] = 0.20 mg/mL risedronate, 50 mL, 1x daily for 5 days, sacrifice immediately after last dosing (Group 7, n = 8)

## NCCCC(O)(P(=O)(O)O)P(=O)(O)O [Alendronate, 4-amino-1-hydroxybutylidene-1,1-bisphosphonic acid monosodium trihydrate]
esophagus
  Adverse esophageal effects associated with use: esophagitis and/or esophageal ulcers
Canine esophagus; [3]
  Histopathology: esophageal epithelial surface: deep ulceration of the epithelial surface
  Histopathology: submucosal inflammation and vacuolation: marked submucosal inflammation and vacuolation
Canine esophagus; [4]
  Histopathology: esophageal epithelial surface: deep ulceration of the epithelial surface
  Histopathology: submucosal inflammation and vacuolation: marked submucosal inflammation and vacuolation
Canine esophagus; 0.80 mg/mL alendronate, 50 mL, 1x weekly for a total of 4 doses, sacrifice 7 days after last dosing (Group 5, n = 6)
  Histopathology: vacuolation: no
Canine esophagus; [5]
  Histopathology: esophageal epithelium: normal with an intact epithelium
  Histopathology: submucosal inflammation: absence of inflammatory cells in the submucosa and no
Canine esophagus; [6]
  Histopathology: esophageal epithelial surface: intact epithelial surface
  Histopathology: submucosal inflammation and vacuolation: very slight submucosal inflammation and vacuolation
Canine esophagus; [7]
  Histopathology: esophageal epithelium: intact epithelium
  Histopathology: vacuolation: no vacuolation and no

## CC(O)(P(=O)(O)O)P(=O)(O)O [Etidronate, 1-hydroxyethane-1,1-diphosphonic acid]
Bone [1]; at doses used clinically
  Effect on bone mineralization: impairs mineralization
Bone [1]; given daily for more than several days
  Effect on bone mineralization: decline in bone mineralization

## NCCC(O)(P(=O)(O)O)P(=O)(O)O [Pamidronate, 3-amino-1-hydroxypropylidene-1,1-bisphosphonic acid]
esophagus
  Adverse esophageal effects associated with use: esophageal ulcers

## O=P(O)(O)C(O)(Cc1cccnc1)P(=O)(O)O [Risedronate, 1-hydroxy-2-(3-pyridinyl)-ethylidene-1,1-bisphosphonic acid]
Bone [2]
  Antiresorptive bone effect, cyclic versus continuous daily dosing: less effective than continuous daily dosing
Canine esophagus; [8]
  Histopathology: animals with deep ulceration of epithelial surface: 4 of 8 animals
  Histopathology: esophageal epithelial surface: deep ulceration of the epithelial surface
  Histopathology: submucosal inflammation and vacuolation: marked submucosal inflammation and vacuolation
Canine esophagus
  Esophageal irritation potential: high

## O=P(O)(O)C(Sc1ccc(Cl)cc1)P(=O)(O)O [Tiludronate, (4-chlorophenyl)thiomethane-1,1-disphosphonic acid]
Canine esophagus
  Esophageal irritation potential: high
